Experimental data published in US8680290B2, “Isoxazoline derivatives and their use as herbicides” (Syngenta Limited, priority 2004, dated 2014).

Legend:
[1] = tested on: Monocotyledonous and dicotyledonous test plants; experiment: Example B1 herbicidal action, application post-emergence (Table B1a); format: in vivo; settings: 250 g/ha, evaluated after 3 weeks, scale 0-10
How it was run: (§1)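 Compounds sprayed as aqueous solution from acetone/Emulsogen EL/NMP/dipropylene glycol monomethyl ether/X-77 formulation onto soil right after sowing (pre-emergence) or onto 8–9-day plants (post-emergence); greenhouse-grown. Damage scored 0 (none) to 10 (total) after 4 weeks pre- or 3 weeks post-emergence.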

[2] = tested on: Monocotyledonous and dicotyledonous test plants; experiment: Example B1 herbicidal action, application pre-emergence (Table B1b); format: in vivo; settings: 250 g/ha, evaluated after 4 weeks
How it was run: as §1

[3] = tested on: Monocotyledonous and dicotyledonous test plants; experiment: Example B2 herbicidal action, application post-emergence, 96-cell seed trays (Table B2a); format: in vivo; settings: 1000 g/ha
Experimental: (§2) Monocotyledonous and dicotyledonous test plants were sown in sterilised standard soil in seed trays each having 96 cells. After one day (pre-emergence) or after 8 to 9 days cultivation (post-emergence) under controlled conditions in a climatic chamber (cultivation at 17/23° C.; 13 hours light; 50-60% humidity; after application at 19/24° C.), the plants were treated with an aqueous spray solution of 1000 mg/l of the active ingredient used (rate of application: […]; incl. 10% DMSO as solvent). The plants were grown on in the climatic chamber until the test was evaluated (10 total damage to plant, 0=no damage to plant) after 9 or 13 days.

[4] = tested on: Monocotyledonous and dicotyledonous test plants; experiment: Example B2 herbicidal action, application pre-emergence, 96-cell seed trays (Table B2b); format: in vivo; settings: 1000 g/ha
Experimental: as §2

Structure (SMILES): CC1(C)CC([S+]([O-])C(Cl)c2c(F)cccc2Cl)=NO1 (single isomer, unassigned) [1.34]
- herbicidal damage rating, Abutilon [1]: 3
- herbicidal damage rating, Amaranthus [1]: 5
- herbicidal damage rating, Digitaria [1]: 5
- herbicidal damage rating, Panicum [1]: 8
- herbicidal damage rating, Setaria [1]: 6
- herbicidal damage rating, Sida [1]: 3
- herbicidal action (damage rating 0-10), Amaranthus [2]: 9
- herbicidal action (damage rating 0-10), Digitaria [2]: 9
- herbicidal action (damage rating 0-10), Panicum [2]: 10
- herbicidal action (damage rating 0-10), Setaria [2]: 10
- herbicidal action (damage rating 0-10), Sida [2]: 7
- herbicidal action (damage rating 0-10), Agrostis [3]: 8
- herbicidal action (damage rating 0-10), Amaranthus [3]: 5
- herbicidal action (damage rating 0-10), Poa [3]: 8
- herbicidal action (damage rating 0-10), Setaria [3]: 8

Structure (SMILES): CC1(C)CC(S(=O)(=O)C(F)c2c(F)cccc2F)=NO1 (stereo not shown) [1.06]
- herbicidal action (damage rating 0-10), Agrostis [4]: 10
- herbicidal action (damage rating 0-10), Digitaria [4]: 10
- herbicidal action (damage rating 0-10), Poa [4]: 10
- herbicidal action (damage rating 0-10), Setaria [4]: 10
- herbicidal action (damage rating 0-10), Amaranthus [2]: 10
- herbicidal action (damage rating 0-10), Digitaria [2]: 5
- herbicidal action (damage rating 0-10), Panicum [2]: 10
- herbicidal action (damage rating 0-10), Setaria [2]: 9
- herbicidal action (damage rating 0-10), Sida [2]: 7
- herbicidal action (damage rating 0-10), Agrostis [3]: 8
- herbicidal action (damage rating 0-10), Amaranthus [3]: 8
- herbicidal action (damage rating 0-10), Poa [3]: 8
- herbicidal action (damage rating 0-10), Setaria [3]: 7

Structure (SMILES): CC1(C)CC(S(=O)(=O)C(Cl)c2c(F)cccc2Cl)=NO1 (stereo not shown) [1.32]
- herbicidal action (damage rating 0-10), Agrostis [3]: 8
- herbicidal action (damage rating 0-10), Amaranthus [3]: 6
- herbicidal action (damage rating 0-10), Poa [3]: 8
- herbicidal action (damage rating 0-10), Setaria [3]: 6

Structure (SMILES): CC1(C)CC(S(=O)(=O)C(Br)c2c(F)cccc2F)=NO1 (stereo not shown) [Compound No. 1.19, 3-[bromo-(2,6-difluorophenyl)-methanesulfonyl]-5,5-dimethyl-4,5-dihydroisoxazole]
- herbicidal action (damage rating 0-10), Agrostis [4]: 10
- herbicidal action (damage rating 0-10), Digitaria [4]: 9
- herbicidal action (damage rating 0-10), Poa [4]: 10
- herbicidal action (damage rating 0-10), Setaria [4]: 9
- herbicidal damage rating, Abutilon [1]: 6
- herbicidal damage rating, Amaranthus [1]: 5
- herbicidal damage rating, Digitaria [1]: 6
- herbicidal damage rating, Panicum [1]: 5
- herbicidal damage rating, Setaria [1]: 5
- herbicidal damage rating, Sida [1]: 2
- melting point: 135 °C
- herbicidal action (damage rating 0-10), Amaranthus [2]: 10
- herbicidal action (damage rating 0-10), Digitaria [2]: 10
- herbicidal action (damage rating 0-10), Panicum [2]: 10
- herbicidal action (damage rating 0-10), Setaria [2]: 10
- herbicidal action (damage rating 0-10), Sida [2]: 6

Structure (SMILES): CC1(C)CC(S(=O)(=O)C(F)(Cl)c2c(F)cccc2F)=NO1 (stereo not shown) [Compound No. 1.21, 3-[chloro-(2,6-difluoro-phenyl)-fluoro-methanesulfonyl]-5,5-dimethyl-4,5-dihydroisoxazole]
- herbicidal action (damage rating 0-10), Agrostis [4]: 10
- herbicidal action (damage rating 0-10), Digitaria [4]: 10
- herbicidal action (damage rating 0-10), Poa [4]: 10
- herbicidal action (damage rating 0-10), Setaria [4]: 9
- herbicidal damage rating, Abutilon [1]: 7
- herbicidal damage rating, Digitaria [1]: 7
- herbicidal damage rating, Panicum [1]: 9
- herbicidal damage rating, Setaria [1]: 7
- herbicidal damage rating, Sida [1]: 5
- melting point: 129 °C
- herbicidal action (damage rating 0-10), Amaranthus [2]: 10
- herbicidal action (damage rating 0-10), Digitaria [2]: 10
- herbicidal action (damage rating 0-10), Panicum [2]: 10
- herbicidal action (damage rating 0-10), Setaria [2]: 10
- herbicidal action (damage rating 0-10), Sida [2]: 9

Structure (SMILES): CC1(C)CC(S(=O)(=O)C(C(N)=O)c2c(F)cccc2F)=NO1 (stereo not shown) [Compound No. 1.23, 2-(2,6-difluoro-phenyl)-2-(5,5-dimethyl-4,5-dihydroisoxazole-3-sulfonyl)-acetamide]
- herbicidal action (damage rating 0-10), Agrostis [4]: 10
- herbicidal action (damage rating 0-10), Digitaria [4]: 8
- herbicidal action (damage rating 0-10), Poa [4]: 10
- herbicidal action (damage rating 0-10), Setaria [4]: 8
- melting point: 175 °C
- herbicidal action (damage rating 0-10), Amaranthus [2]: 7
- herbicidal action (damage rating 0-10), Digitaria [2]: 4
- herbicidal action (damage rating 0-10), Panicum [2]: 10
- herbicidal action (damage rating 0-10), Setaria [2]: 7
- herbicidal action (damage rating 0-10), Sida [2]: 0

Structure (SMILES): CC1(C)CC(S(=O)(=O)C(I)c2c(F)cccc2F)=NO1 (stereo not shown) [Compound No. 1.25, 3-[(2,6-difluoro-phenyl)-iodo-methanesulfonyl]-5,5-dimethyl-4,5-dihydroisoxazole]
- herbicidal action (damage rating 0-10), Agrostis [4]: 10
- herbicidal action (damage rating 0-10), Digitaria [4]: 9
- herbicidal action (damage rating 0-10), Poa [4]: 10
- herbicidal action (damage rating 0-10), Setaria [4]: 8
- herbicidal damage rating, Abutilon [1]: 5
- herbicidal damage rating, Digitaria [1]: 4
- herbicidal damage rating, Panicum [1]: 3
- herbicidal damage rating, Setaria [1]: 3
- herbicidal damage rating, Sida [1]: 4
- melting point: 156 °C
- herbicidal action (damage rating 0-10), Amaranthus [2]: 10
- herbicidal action (damage rating 0-10), Digitaria [2]: 10
- herbicidal action (damage rating 0-10), Panicum [2]: 10
- herbicidal action (damage rating 0-10), Setaria [2]: 10
- herbicidal action (damage rating 0-10), Sida [2]: 3

Structure (SMILES): CC1(C)CC(S(=O)(=O)C(Cl)(Cl)c2c(F)cccc2F)=NO1 [Compound No. 1.26, 3-[dichloro-(2,6-difluoro-phenyl)-methanesulfonyl]-5,5-dimethyl-4,5-dihydroisoxazole]
- herbicidal action (damage rating 0-10), Agrostis [4]: 10
- herbicidal action (damage rating 0-10), Digitaria [4]: 10
- herbicidal action (damage rating 0-10), Poa [4]: 10
- herbicidal action (damage rating 0-10), Setaria [4]: 9
- herbicidal damage rating, Abutilon [1]: 4
- herbicidal damage rating, Digitaria [1]: 4
- herbicidal damage rating, Panicum [1]: 3
- herbicidal damage rating, Setaria [1]: 5
- melting point: 126 °C
- herbicidal action (damage rating 0-10), Amaranthus [2]: 10
- herbicidal action (damage rating 0-10), Digitaria [2]: 9
- herbicidal action (damage rating 0-10), Panicum [2]: 10
- herbicidal action (damage rating 0-10), Setaria [2]: 10
- herbicidal action (damage rating 0-10), Sida [2]: 4

Structure (SMILES): CC(=O)C(c1c(F)cccc1F)S(=O)(=O)C1=NOC(C)(C)C1 (stereo not shown) [Compound No. 1.27, 1-(2,6-difluorophenyl)-1-(5,5-dimethyl-4,5-dihydroisoxazole-3-sulfonyl)-propan-2-one]
- herbicidal action (damage rating 0-10), Agrostis [4]: 10
- herbicidal action (damage rating 0-10), Digitaria [4]: 9
- herbicidal action (damage rating 0-10), Poa [4]: 9
- herbicidal action (damage rating 0-10), Setaria [4]: 9
- herbicidal damage rating, Abutilon [1]: 4
- herbicidal damage rating, Digitaria [1]: 2
- herbicidal damage rating, Panicum [1]: 5
- herbicidal damage rating, Setaria [1]: 3
- herbicidal damage rating, Sida [1]: 4
- melting point: 116 °C
- herbicidal action (damage rating 0-10), Amaranthus [2]: 7
- herbicidal action (damage rating 0-10), Digitaria [2]: 4
- herbicidal action (damage rating 0-10), Panicum [2]: 9
- herbicidal action (damage rating 0-10), Setaria [2]: 5
- herbicidal action (damage rating 0-10), Sida [2]: 2

Structure (SMILES): Cc1cccc(C(Cl)S(=O)(=O)C2=NOC(C)(C)C2)c1 (stereo not shown) [Compound No. 1.30, 3-[chloro-m-tolyl-methanesulfonyl]-5,5-dimethyl-4,5-dihydroisoxazole]
- herbicidal action (damage rating 0-10), Agrostis [4]: 10
- herbicidal action (damage rating 0-10), Digitaria [4]: 10
- herbicidal action (damage rating 0-10), Poa [4]: 10
- herbicidal action (damage rating 0-10), Setaria [4]: 10
- melting point: 102 °C
- herbicidal action (damage rating 0-10), Amaranthus [2]: 0
- herbicidal action (damage rating 0-10), Digitaria [2]: 9
- herbicidal action (damage rating 0-10), Panicum [2]: 10
- herbicidal action (damage rating 0-10), Setaria [2]: 9
- herbicidal action (damage rating 0-10), Sida [2]: 2

Structure (SMILES): Cc1cccc(C(Cl)(Cl)S(=O)(=O)C2=NOC(C)(C)C2)c1 [Compound No. 1.31, 3-[dichloro-m-tolyl-methanesulfonyl]-5,5-dimethyl-4,5-dihydroisoxazole]
- herbicidal action (damage rating 0-10), Agrostis [4]: 9
- herbicidal action (damage rating 0-10), Digitaria [4]: 9
- herbicidal action (damage rating 0-10), Poa [4]: 9
- herbicidal action (damage rating 0-10), Setaria [4]: 10
- herbicidal damage rating, Abutilon [1]: 3
- herbicidal damage rating, Digitaria [1]: 1
- herbicidal damage rating, Panicum [1]: 7
- herbicidal damage rating, Setaria [1]: 0
- herbicidal damage rating, Sida [1]: 7
- melting point: 89 °C
- herbicidal action (damage rating 0-10), Amaranthus [2]: 0
- herbicidal action (damage rating 0-10), Digitaria [2]: 9
- herbicidal action (damage rating 0-10), Panicum [2]: 9
- herbicidal action (damage rating 0-10), Setaria [2]: 7
- herbicidal action (damage rating 0-10), Sida [2]: 0

Structure (SMILES): CC1(C)CC(S(=O)(=O)C(Cl)(Br)c2c(F)cccc2F)=NO1 (stereo not shown) [Compound No. 1.53, 3-[bromo-chloro-(2,6-difluorophenyl)-methanesulfonyl]-5,5-dimethyl-4,5-dihydroisoxazole]
- herbicidal damage rating, Abutilon [1]: 5
- herbicidal damage rating, Amaranthus [1]: 7
- herbicidal damage rating, Digitaria [1]: 7
- herbicidal damage rating, Panicum [1]: 7
- herbicidal damage rating, Setaria [1]: 7
- herbicidal damage rating, Sida [1]: 2
- melting point: 119 °C
- herbicidal action (damage rating 0-10), Amaranthus [2]: 9
- herbicidal action (damage rating 0-10), Digitaria [2]: 10
- herbicidal action (damage rating 0-10), Panicum [2]: 10
- herbicidal action (damage rating 0-10), Setaria [2]: 10
- herbicidal action (damage rating 0-10), Sida [2]: 5
